From ChEMBL document CHEMBL4011652, “Discovery of Novel Potent Reversible and Irreversible Myeloperoxidase Inhibitors Using Virtual Screening Procedure” (J Med Chem, 2017)
Activity calls are given as the source filed them. The calls are words filed in the database; no cut-off is given here.

Columns and labels:
Myeloperoxidase [1] = biological target: T1, Myeloperoxidase (Homo sapiens, UniProt P05164); test: Inhibition of recombinant MPO (unknown origin) assessed as reduction in taurine chloramine production preincubated with enzyme and taurine followed by H2O2 addition measured after 5 mins
T1 sequence (P05164 whole entry): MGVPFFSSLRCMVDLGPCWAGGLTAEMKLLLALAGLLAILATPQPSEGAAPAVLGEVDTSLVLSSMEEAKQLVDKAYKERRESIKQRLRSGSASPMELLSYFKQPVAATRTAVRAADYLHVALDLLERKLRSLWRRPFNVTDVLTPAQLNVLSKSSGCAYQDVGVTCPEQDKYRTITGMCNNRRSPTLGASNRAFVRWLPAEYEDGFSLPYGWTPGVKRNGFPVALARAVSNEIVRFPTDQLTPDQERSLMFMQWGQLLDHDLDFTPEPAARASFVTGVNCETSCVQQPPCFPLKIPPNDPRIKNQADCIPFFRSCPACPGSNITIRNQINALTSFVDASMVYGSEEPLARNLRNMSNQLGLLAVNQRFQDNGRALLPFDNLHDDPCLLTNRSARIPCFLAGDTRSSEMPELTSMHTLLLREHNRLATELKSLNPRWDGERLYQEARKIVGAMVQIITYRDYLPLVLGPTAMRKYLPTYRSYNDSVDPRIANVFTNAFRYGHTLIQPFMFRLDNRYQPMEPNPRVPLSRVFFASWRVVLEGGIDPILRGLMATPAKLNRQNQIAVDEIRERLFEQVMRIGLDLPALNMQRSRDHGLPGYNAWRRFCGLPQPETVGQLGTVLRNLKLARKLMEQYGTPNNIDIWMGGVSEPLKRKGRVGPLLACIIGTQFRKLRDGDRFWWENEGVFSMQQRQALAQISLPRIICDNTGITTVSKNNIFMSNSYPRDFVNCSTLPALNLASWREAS

[2] = biological target: T2, Myeloperoxidase (Homo sapiens) (UniProt P05164); test: Inhibition of recombinant MPO (unknown origin) assessed as reduction in TMB peroxidation by measuring residual activity at 5 uM in absence of H2O2 incubated for 5 mins followed by 100 fold enzyme dilution relative to control
T2 sequence (whole entry): T1 sequence (P05164 whole entry)

[3] = biological target: T2, Myeloperoxidase (Homo sapiens); test: Inhibition of recombinant MPO (unknown origin) assessed as reduction in TMB peroxidation by measuring residual activity at 5 uM in presence of H2O2 incubated for 5 mins followed by 100 fold enzyme dilution relative to control
[4] = biological target: T2, Myeloperoxidase (Homo sapiens); test: Inhibition of recombinant MPO (unknown origin) assessed as reduction in TMB peroxidation by measuring residual activity at 5 uM in presence of H2O2 and NaCl incubated for 5 mins followed by 100 fold enzyme dilution relative to control
Myeloperoxidase [5] = biological target: T1, Myeloperoxidase; test: Inhibition of recombinant MPO (unknown origin) assessed as reduction in LDL oxidation in presence of H2O2 and HCl after 5 mins by ELISA
Lactoperoxidase = Lactoperoxidase (Bos taurus, UniProt P80025); test: Inhibition of bovine milk LPO assessed as reduction in NaOSCN production in presence of H2O2/NaSCN after 5 mins
[6] = biological target: T2, Myeloperoxidase (Homo sapiens); test: Inhibition of MPO (unknown origin) assessed as apparent bi-molecular rate constant for PorFe(4)=O radical reduction by stopped-flow spectroscopic analysis
NHDF = test: Cytotoxicity against NHDF assessed as reduction in cell viability after 72 hrs by MTT assay; assay type: cell-based; settings: Homo sapiens
[7] = Selectivity ratio of IC50 for bovine milk LPO to IC50 for recombinant MPO (unknown origin)
[8] = biological target: T2, Myeloperoxidase (Homo sapiens); test: Inhibition of recombinant MPO (unknown origin) assessed as reduction in taurine chloramine production at 5 uM preincubated with enzyme and taurine followed by H2O2 addition measured after 5 mins relative to control
[9] = biological target: T2, Myeloperoxidase (Homo sapiens); test: Inhibition of MPO (unknown origin) assessed as apparent bi-molecular rate constant for PorFe(4)-OH reduction by stopped-flow spectroscopic analysis
Myeloperoxidase [10] = biological target: T1, Myeloperoxidase; test: Inhibition of MPO in human neutrophils assessed as reduction in HOCl production preincubated for 30 mins followed by H2O2 addition by APF staining based flow cytometry
Neutrophil [11] = test: Induction of apoptosis in human neutrophils assessed as compound concentration required for effect after 30 mins by JC1 staining based flow cytometry; assay type: cell-based; settings: 0.5 h
Neutrophil [12] = test: Induction of apoptosis in human neutrophils up to 1 mM after 30 mins by JC1 staining based flow cytometry; assay type: cell-based; settings: 0.5 h
Plasma = test: Plasma concentration in po dosed human; assay type: ADME, organism-based; settings: in vivo
Neutrophil [13] = test: Induction of apoptosis in human neutrophils assessed as increase in necrotic cells at >= 50 uM after 30 mins by JC1 staining based flow cytometry; assay type: cell-based; settings: 0.5 h
[14] = biological target: T2, Myeloperoxidase (Homo sapiens); settings: 5 uM
Description: Irreversible inhibition of recombinant MPO (unknown origin) assessed as reduction in guaiacol peroxidation by measuring enzyme activity recovery at 5 uM incubated for 20 mins followed by 200 fold dilution measured for 10 mins

[15] = biological target: T2, Myeloperoxidase (Homo sapiens); settings: 1 to 5 uM
Description: Inhibition of MPO in human neutrophils assessed as reduction in HOCl production at 1 to 5 uM preincubated for 30 mins followed by H2O2 addition by APF staining based flow cytometry relative to control

Work on `O=c1cc(-c2ccc(O)cc2)oc2cc(O)ccc12` yielded an IC50 (Myeloperoxidase [1]) of 5790 nM.

Work on `NNc1nncc2ccccc12` [HYDRALAZINE] yielded an Activity [2] of 76%, an Activity [3] of 9% and an Activity [4] of 6%. The IC50 (Myeloperoxidase [5]) was 2360 nM, the IC50 (Lactoperoxidase) was 1.2 µM and the Kapp [6] was 7.1 ×10⁶ /M/s. For the same compound, the IC50 (NHDF) was > 50 µM and the Ratio IC50 [7] was 1.3.

With `Fc1ccc2oc([C@H]3CCNC3)nc2c1` the IC50 (Myeloperoxidase [1]) was 1740 nM and the IC50 (NHDF) was > 50 µM.

With `O=c1cc(-c2ccc(O)cc2)oc2cc(O)cc(O)c12` [APIGENIN] the IC50 (Myeloperoxidase [1]) was 3800 nM, the IC50 (Lactoperoxidase) was 17.8 µM and the Ratio IC50 [7] was 5.6.

For `C[C@H]1CN(c2cc3c(cc2F)c(=O)c(C(=O)O)cn3C2CC2)CCN1`, the IC50 (Myeloperoxidase [1]) was > 5000 nM.

With `Cc1ccc(-c2cc(C(F)(F)F)nn2-c2ccc(S(N)(=O)=O)cc2)cc1` the inhibition [8] was 11%.

For `CN(C)CCCN1c2ccccc2Sc2ccc(C(F)(F)F)cc21`, the inhibition [8] was 12.3%.

In the case of `c1c2c(cc3c4n(nc13)CCS4)OCO2`, the IC50 (Myeloperoxidase [1]) is reported as 85 nM.

For `O=c1c(O)c(-c2ccc(O)cc2)oc2cc(O)cc(O)c12` [KAEMPFEROL], the IC50 (Myeloperoxidase [1]) was 2240 nM, the Activity [2] was 78% and the Activity [3] was 81%. The Activity [4] was 84%.

`N#CC1=C(N)Oc2cc(O)ccc2C1c1cccc(C(F)(F)F)c1` (stereo not drawn) showed an IC50 (Myeloperoxidase [1]) of 10100 nM.

With `Cc1nc(NC(=N)N)nc2ccc(Cl)cc12` the IC50 (Myeloperoxidase [1]) was 630 nM.

Work on `CCN1CCC[C@H]1CNC(=O)c1cc(S(N)(=O)=O)ccc1OC` [LEVOSULPIRIDE] yielded an IC50 (Myeloperoxidase [1]) of 7680 nM.

`Cc1nc(N=C(N)N)nc2ccc(F)cc12` gave an IC50 (Myeloperoxidase [1]) of 145 nM.

`NCCCCc1c[nH]c2ccc(F)cc12` gave an IC50 (Myeloperoxidase [1]) of 8 nM.

Compound `COc1cc(N[C@H](C)CCCN)c2ncccc2c1` has an IC50 (Myeloperoxidase [1]) of 300 nM, an Activity [2] of 86% and an Activity [3] of 91%. For the same compound, the Activity [4] was 86%, the IC50 (Lactoperoxidase) was 0.8 µM and the IC50 (NHDF) was > 50 µM. It also gave a Ratio IC50 [7] of 3.

In the case of `CSc1ccc2c(c1)N(CC[C@H]1CCCCN1C)c1ccccc1S2`, the IC50 (Myeloperoxidase [1]) is reported as > 5000 nM, the inhibition [8] is reported as 24.2% and the Kapp [6] is reported as 5.2 ×10⁶ /M/s. For the same compound, the Kapp [9] was 1.7 ×10⁴ /M/s.

With `Fc1ccc2[nH]c([C@@H]3CCN(CC4NC=CN4)C3)nc2c1` the IC50 (Myeloperoxidase [1]) was 50 nM, the Activity [2] was 83% and the Activity [3] was 84%. The Activity [4] was 84%, the IC50 (Myeloperoxidase [5]) was 120 nM and the IC50 (Lactoperoxidase) was > 5 µM. For the same compound, the IC50 (Myeloperoxidase [10]) was 314 µM, the Activity (Neutrophil [11]) was > 50 µM and the IC50 (NHDF) was > 50 µM. For the same compound, the Activity (Neutrophil [12]) was “Non-Toxic”.

For `CCN(CC)CCNC(=O)c1cc(Cl)c(N)cc1OC` [METOCLOPRAMIDE], the IC50 (Myeloperoxidase [1]) was 350 to 1000 nM, the IC50 (Myeloperoxidase [5]) was > 5000 nM and the IC50 (Lactoperoxidase) was > 5 µM. For the same compound, the IC50 (NHDF) was > 50 µM and the concentration (Plasma) was 200 to 400 nM.

With `Fc1ccc([C@@H]2CCNC[C@H]2COc2ccc3c(c2)OCO3)cc1` [PAROXETINE] the IC50 (Myeloperoxidase [1]) was 20 nM.

Work on `Cc1nc(N=C(N)N)nc2cc(F)ccc12` yielded an IC50 (Myeloperoxidase [1]) of 40 nM, an IC50 (Lactoperoxidase) of 3.9 µM and a Ratio IC50 [7] of 30.

For `CC(C)NCC(=O)c1nc2cc(F)ccc2[nH]1`, the IC50 (Myeloperoxidase [1]) was 130 nM, the Activity [2] was 79% and the Activity [3] was 87%. The Activity [4] was 81%, the IC50 (Lactoperoxidase) was > 5 µM and the IC50 (NHDF) was > 50 µM.

With `O=C(N/N=C/c1ccc([N+](=O)[O-])o1)c1ccc(O)cc1` [NIFUROXAZIDE] the IC50 (Myeloperoxidase [1]) was > 5000 nM.

In the case of `C[C@H](COc1ccccc1)N[C@@H](C)[C@@H](O)c1ccc(O)cc1`, the inhibition [8] is reported as 5.32%.

Work on `Cc1nc(N=C(N)N)nc2cc(Cl)ccc12` yielded an IC50 (Myeloperoxidase [1]) of 96 nM.

`Cc1cccc(Nc2ccccc2C(=O)O)c1C` [MEFENAMIC ACID] showed an IC50 (Myeloperoxidase [1]) of 980 nM, an Activity [2] of 87% and an Activity [3] of 82%. It also gave an Activity [4] of 87% and an IC50 (Myeloperoxidase [5]) of 2210 nM.

Work on `O=c1c(O)c(-c2ccc(O)c(O)c2)oc2cc(O)cc(O)c12` [QUERCETIN] yielded an IC50 (Myeloperoxidase [1]) of 1150 nM, an Activity [2] of 72% and an Activity [3] of 78%. It also gave an Activity [4] of 79%, an IC50 (Myeloperoxidase [5]) of 3100 nM and an IC50 (Lactoperoxidase) of 6.1 µM. For the same compound, the IC50 (NHDF) was > 50 µM and the Ratio IC50 [7] was 5.

In the case of `CCn1cc(C(=O)O)c(=O)c2cc(F)c(N3CCN[C@@H](C)C3)c(F)c21`, the IC50 (Myeloperoxidase [1]) is reported as > 5000 nM, the inhibition [8] is reported as “inactive” and the Kapp [6] is reported as 3.1 ×10⁴ /M/s. It also gave a Kapp [9] of 1.2 ×10³ /M/s.

With `Cc1nc(N=C(N)N)nc2ccc(Br)cc12` the IC50 (Myeloperoxidase [1]) was 756 nM.

`Nc1cc(=O)[nH]c(CSc2ccc(F)c3ccccc23)n1` showed an inhibition [8] of 37.2%.

In the case of `COc1ccc2c(C)nc(NC(=N)N)nc2c1`, the IC50 (Myeloperoxidase [1]) is reported as 44 nM, the Activity [2] is reported as 84% and the Activity [3] is reported as 4%. The Activity [4] was 5%, the IC50 (Myeloperoxidase [5]) was 90 nM and the IC50 (Lactoperoxidase) was 3.2 µM. For the same compound, the Kapp [6] was 1.9 ×10⁶ /M/s, the IC50 (Myeloperoxidase [10]) was 93.1 µM and the Activity (Neutrophil [11]) was > 50 µM. For the same compound, the IC50 (NHDF) was 17 µM, the Activity (Neutrophil [12]) was “Non-Toxic” and the Activity (Neutrophil [13]) was “Toxic”. The Ratio IC50 [7] was 73, the inhibition [14] was “Active” and the inhibition [15] was 67 to 71%.

For `Cc1nc(NC(=N)N)nc2cc(Br)ccc12`, the IC50 (Myeloperoxidase [1]) was 106 nM.

`O[C@@H]1CN[C@H](c2nc(Cc3ccc(F)cc3Cl)no2)C1` showed an IC50 (Myeloperoxidase [1]) of 4680 nM.

Compound `Cc1nc(NC(=N)N)nc2ccccc12` has an IC50 (Myeloperoxidase [1]) of 900 nM.
